The text below walks through data of patent publication US20130178479A1, “PHARMACEUTICAL COMBINATIONS” (NOVARTIS AG, priority 2010, published 2013).

Read-outs that look alike come from different tables or passages of the source. Bounds are passed on as bounds.

Assay [1] deals with pS6 S240/244 in NCI-H23 cells. The assay can be described thus: High content pS6 S240/244 assay in NCI-H23 cells. The class given is cell-based. Conditions: Homo sapiens, single agent, NCI-H23, 18 hrs; for IC50: read-out: IC50, inhibition of pS6 signal; for IC90: read-out: IC90, inhibition of pS6 signal. The method, then:
Automated imaging assay (or High-Content assay) for pS6 S240/244 and p4EBP1 T37/46: 2-4×10^3 cells were seeded in clear-bottom 384-well black plates (Greiner #781091) in 30 μl per well growth media 24 hours prior to treatment Compounds were added to the cell in 10 μl growth media and incubated overnight; the cells were then fixed by addition of 10 μl per well Mirsky's fixative (National Diagnostics #HS-102) for 1 hour, washed seven times with 30 μl/well TBS buffer using a BioTek plate washer, and blocked with 100 μl/well blocking buffer (TBS with 0.1% BSA and 0.1% Triton X-100). The anti-Ser 240/244 -RPS6 antibody (CST #4838, 1:150 dilution) or anti-Thr 37/46-p4EBP1 antibody (CST #2855, 1:150 dilution) were then incubated overnight at 4° C. After seven times wash with TBS, the cells were stained with Cy5-conjugated goat-anti-rabbit IgG 2nd antibody (Millipore #AP187S, 1:150 dilution) and DNA staining dye Neediest 33342 for 1.5 hours. The phospho-S6 and phospho-4EBP1 signals were-imaged using InCell 1000 Analyzer (BN_staining—10×protocol) at 10× magnification, 3 fields per well after seven times wash with TBS. For Hoechst 33342 signal; the excitation and emission wave lengths are 360 nm (D360—40× filter) and […] (HQ460—40M filter), respectively, and for Cy5, 620 nm (HQ620—60× filter) for both the excitation and emission wave lengths. Analysis of the images was done using the InCell Investigator software.
(§1) Method for calculating the effect of the Combination: To evaluate the everolimus and Compound A combination effect in a non-bias way and to identify synergistic effect at all possible concentrations, the combination studies were conducted with a “dose matrix”, where a combination is tested in all possible permutations of serially-diluted everolimus and Compound A single agent doses, in all combination assays, compounds were applied simultaneously. Single agent dose responding curves, IC50, IC90, and the Synergy are all analyzed using Chalice software (CombinatoRx, Cambridge, Mass.). Synergy was calculated by comparing a combination's response to those of its single agents, against the drug-with-itself dose-additive reference model. Deviations from dose additivity can be assessed visually on an Isobologram or numerically With a Combination Index. Excess inhibition compare to additivity can also be plotted as a full dose-matrix chart to capture where the synergies occur. To quantify the overall strength of combination effects, a volume score VHSA=ΣXYInfXInfY(Idata−IHSA) is also calculated between the data and the highest-single-agent surface, normalized for single agent dilution factors fX,fY[ref].
The experiment setup is identical to the p4EBP1 assay used for the NCI-H23 cell model (FIGS. 3-4). […]

The subject of assay [2] is GA-10 human Non-Hodgkin's Lymphoma cancer cells. The assay can be described thus: Cell proliferation assay (CellTiter-Glo) in GA-10. The class given is cell-based. The method, then: (§2) Celt Proliferation Assay: Cell viability was determined by measuring cellular ATP content using the CellTiter-Glo® Luminescent Cell Viability Assay (Promega #G7573) according to manufacturer's protocol. Briefly, 1500-50000 cells were plated on either 384 or 96 well plates in 30 μl (384 well) or 100 μl (96 well) growth media, cells were: allowed to attach overnight and followed by 72 hrs of incubation with various concentration of drugs or drug combinations (10 μl per well in 384 well plates), at the end of the drug treatment, 30 μl of the CellTiter-Glo regent were added to each well (384 well plates) to lyse the cell, and luminescence signals were recorded on a Envision plate reader.
as §1
The cells were plated at 50000 cells/well in 96 well plates in triplicate, and treated with compound for 72 hrs prior to the measurement (FIG. 10). The following “dose matrix”, everolimus: 8 dose, 3×, 500 nM to 0.23 nM, Compound A: 8 dose, 2×, 1 μM to 8 nM, was applied.

The subject of assay [3] is MFE296 human endometrial cancer cells. Nature of the assay: Cell proliferation assay (CellTiter-Glo) in MFE296. It is filed as cell-based. Conditions: for Amax: single agent. The method, then:
as §2, §1
The experiment setup is identical to the p4EBP1 assay as described above for the MFE296 cancer cell model. (FIG. 8). And the same “dose matrix” (everolimus: 11 dose, 4', 500 nM to 0.5 pM, Compound A; 9 dose, 4×, 1 μM to 16 nM) was applied.

The test system of assay [4] is KMS-11 human Multiple Myeloma cancer cells. The assay can be described thus: Cell proliferation assay (CellTiter-Glo) in KMS-11. It is filed as cell-based. Conditions: for IC50: Homo sapiens. As to the method: as §2, §1
The cells were plated, at 50000 cells/well in 96 well plates in triplicates, and treated with compound for 72 hrs prior to the measurement (FIG. 11). The following “dose matrix”, everolimus; 8 dose, 3×, 500 nM to 0.23 nM, Compound A: 8 dose, 2×, 1 μM to 8 nM, was applied.

For assay [5], the system named is PI3K/mTOR. As to conditions: cited from earlier work.
The subject of assay [6] is AN3 CA human endometrial cancer cells. The assay can be described thus: Cell proliferation assay (CellTiter-Glo) in AN3 CA. The class given is cell-based. The method, then: as §2, §1
The cells were plated at 1500 cells/well in 384 well plates in quadruplicates, and treated with compound for 72 hrs before the measurement (FIG. 9). The following “dose matrix”, everolimus: 11 dose, 4×, 500 nM to 0.5 pM, Compound A: 9 dose, 4×, 1 μM to […], was applied.

The subject of assay [7] is six cell lines from various tissue lineages. Nature of the assay: Antiproliferative effect of combinations, summary over six cell lines. It is filed as cell-based, human. Conditions: depends on the cell types. The method, then: as §2
Method for calculating the effect of the Combination: To evaluate the everolimus and Compound A combination effect in a non-bias way and to identify synergistic effect at all possible concentrations, the combination studies were conducted with a “dose matrix”, where a combination is tested in all possible permutations of serially-diluted everolimus and Compound A single agent doses, in all combination assays, compounds were applied simultaneously. Single agent dose responding curves, IC50, IC90, and the Synergy are all analyzed using Chalice software (CombinatoRx, Cambridge, Mass.). […] Deviations from dose additivity can be assessed visually on an Isobologram or numerically With a Combination Index. […]

The mark [8] stands for this setting: with trace amount (picomolar) of everolimus.

With `Cn1c(=O)n(-c2ccc(C(C)(C)C#N)cc2)c2c3cc(-c4cnc5ccccc5c4)ccc3ncc21` [Compound A, 2-methyl-2-[4-(3-methyl-2-oxo-8-quinolin-3-yl-2,3-dihydro-imidazo[4,5-c]quinolin-1-yl)-phenyl]-propionitrile], the IC50 in assay [1] is 5 nM; in assay [2] (Homo sapiens, single agent, GA-10, 72 hrs, read-out: IC50, inhibition of cell growth), about 25 nM; in assay [3] (Homo sapiens, MFE-296, single agent, read-out: IC50, inhibition of cell growth) it was 78 nM; in assay [4] (concomitant everolimus, KMS-11, read-out: IC50 for Compound A, cell growth), 16 nM; in assay [4] (single agent, KMS-11, 72 hrs, read-out: IC50, inhibition of cell growth) it was about 80 nM; in assay [6] (Homo sapiens, single agent, 72 hrs, read-out: IC50, inhibition of cell growth), 5 nM. Besides, the IC90 is about 20 nM in assay [1]; 250 nM in assay [2] (Homo sapiens, GA-10, 72 h, single agent, GA-10, 72 hrs, read-out: IC90, inhibition of cell growth); 16 nM in assay [2] (Homo sapiens, GA-10, concomitant everolimus, GA-10, read-out: IC90 for Compound A, cell growth); about 300 nM in assay [2] (single agent, GA-10, 72 hrs, read-out: IC90, inhibition of cell growth). The “full effective dose amount of Compound A” value in assay [2] (Compound A alone, GA-10) is over 250 nM; in assay [2] (with trace amount (sub-nanomolar) of everolimus, GA-10), 16 to 62 nM; in assay [4] (Compound A alone, KMS-11), over 125 nM; in assay [4] (with trace amount (sub-nanomolar) of everolimus, KMS-11) it was 16 to 82 nM; in assay [6] (Compound A alone), over 64 nM; in assay [6] (setting [8]) it was “close to nanomolar or sub-nanomolar range”. The Amax in assay [2] (single agent, GA-10, 72 hrs) is given as 1; in assay [3] it was 0.79; in assay [4] (single agent, KMS-11, 72 hrs) it was 0.7; in assay [6] (single agent, 72 hrs) it was 0.69. Besides, the entries for the “full effective dose of Compound A” value in assay [3] (Compound A alone) and in assay [3] (setting [8]) were 250 nM and “close to sub-nanomolar range”, respectively. Besides, in assay [5] (low concentration), the “concentration at which mTOR inhibition predominates” value is “less than 100 nmol/L”. The “concentration at which dual PI3K/mTOR inhibition is observed” value in assay [5] (relatively higher concentrations) is “approximately 500 nmol/L”. In assay [7], the “enhancement of the potency of Compound A by everolimus” value was 5-100 fold.
As for `CO[C@H]1C[C@@H]2CC[C@@H](C)[C@@](O)(O2)C(=O)C(=O)N2CCCC[C@H]2C(=O)O[C@H]([C@H](C)C[C@@H]2CC[C@@H](OCCO)[C@H](OC)C2)CC(=O)[C@H](C)/C=C(\C)[C@@H](O)[C@@H](OC)C(=O)[C@H](C)C[C@H](C)/C=C/C=C/C=C/1C` [everolimus, 40-O-(2-hydroxyethyl)-rapamycin, reference compound], the IC50 in assay [1] was under 5 nM. Besides, the concentration for an effect of 90% (IC90) in assay [1] is about 10 nM. Besides, the Amax in assay [2] (single agent, GA-10, 72 hrs) amounted to 0.3; in assay [3], 0.6; in assay [4] (single agent, KMS-11, 72 hrs), 0.28; in assay [6] (single agent, 72 hrs) it was 0.3.
